# Tests used:
# Test in all cases: radiometric filter-binding kinase assay
# [1] = target: MAPK8 (human) (UniProt P45983)
# [2] = target: NUAK1 (human) (UniProt O60285)
# [3] = target: CHEK2 (human) (UniProt O96017)
# [4] = target: MAPK1 (human) (UniProt P28482)
# [5] = target: MAP3K11 (human) (UniProt Q16584)
# [6] = target: MAPK13 (human) (UniProt O15264)
# [7] = target: PRKACA (human) (UniProt P17612)
# [8] = target: MAPK3 (human) (UniProt P27361)
# [9] = system: SGK1 (human), O00141 [S422D]
# [10] = target: MAPK10 (human) (UniProt P53779)
# [11] = system: AKT1 (human), P31749 [S473D]
# [12] = target: MAPKAPK3 (human) (UniProt Q16644)
# Chain of MAPKAPK3 (human) (Q16644 whole entry, looked up): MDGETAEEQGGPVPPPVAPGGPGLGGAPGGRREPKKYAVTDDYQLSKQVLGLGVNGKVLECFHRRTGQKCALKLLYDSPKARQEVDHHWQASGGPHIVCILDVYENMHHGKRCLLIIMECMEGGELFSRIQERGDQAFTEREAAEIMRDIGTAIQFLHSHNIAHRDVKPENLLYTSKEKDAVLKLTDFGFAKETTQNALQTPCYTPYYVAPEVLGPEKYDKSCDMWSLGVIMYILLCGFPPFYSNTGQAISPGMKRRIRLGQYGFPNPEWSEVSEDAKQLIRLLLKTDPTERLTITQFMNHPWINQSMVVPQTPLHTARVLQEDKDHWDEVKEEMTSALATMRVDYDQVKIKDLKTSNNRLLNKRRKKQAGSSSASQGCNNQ
# [13] = target: MAP2K6 (human) (UniProt P52564)
# Chain of MAP2K6 (human) (P52564 whole entry, looked up): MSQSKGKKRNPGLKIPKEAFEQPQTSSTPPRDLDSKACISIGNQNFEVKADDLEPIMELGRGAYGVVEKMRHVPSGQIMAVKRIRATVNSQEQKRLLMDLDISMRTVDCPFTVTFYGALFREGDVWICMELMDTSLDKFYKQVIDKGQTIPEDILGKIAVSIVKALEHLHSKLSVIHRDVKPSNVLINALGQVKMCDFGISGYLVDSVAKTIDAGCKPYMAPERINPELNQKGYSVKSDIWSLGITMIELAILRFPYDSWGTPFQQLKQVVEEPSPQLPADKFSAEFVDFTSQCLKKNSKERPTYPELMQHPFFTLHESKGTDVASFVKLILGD
# [14] = target: MST4 (human) (UniProt Q9P289)
# [15] = target: RPS6KA1 KD1 KD2 (human) (UniProt Q15418)
# Chain of RPS6KA1 KD1 KD2 (human) (Q15418 whole entry, looked up): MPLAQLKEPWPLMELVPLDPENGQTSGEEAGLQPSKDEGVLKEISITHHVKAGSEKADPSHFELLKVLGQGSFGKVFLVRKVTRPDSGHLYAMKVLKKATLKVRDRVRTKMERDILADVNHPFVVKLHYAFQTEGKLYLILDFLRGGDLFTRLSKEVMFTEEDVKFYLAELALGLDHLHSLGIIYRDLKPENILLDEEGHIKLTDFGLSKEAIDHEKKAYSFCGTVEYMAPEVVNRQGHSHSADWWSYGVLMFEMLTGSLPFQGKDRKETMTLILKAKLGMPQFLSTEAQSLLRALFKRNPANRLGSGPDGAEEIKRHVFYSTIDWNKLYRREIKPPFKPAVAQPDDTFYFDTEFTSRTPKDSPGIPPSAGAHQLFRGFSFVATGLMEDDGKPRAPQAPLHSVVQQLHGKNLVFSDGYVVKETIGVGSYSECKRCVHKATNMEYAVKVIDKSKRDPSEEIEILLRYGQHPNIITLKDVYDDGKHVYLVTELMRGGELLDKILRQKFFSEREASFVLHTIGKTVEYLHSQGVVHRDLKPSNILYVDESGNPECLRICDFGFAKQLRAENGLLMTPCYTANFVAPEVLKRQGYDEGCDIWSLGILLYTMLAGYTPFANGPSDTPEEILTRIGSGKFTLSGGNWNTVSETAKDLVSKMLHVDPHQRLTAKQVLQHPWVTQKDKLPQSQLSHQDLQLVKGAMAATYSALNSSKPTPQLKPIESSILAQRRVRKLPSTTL
# [16] = target: PLK1 (human) (UniProt P53350)
# Chain of PLK1 (human) (P53350 whole entry, looked up): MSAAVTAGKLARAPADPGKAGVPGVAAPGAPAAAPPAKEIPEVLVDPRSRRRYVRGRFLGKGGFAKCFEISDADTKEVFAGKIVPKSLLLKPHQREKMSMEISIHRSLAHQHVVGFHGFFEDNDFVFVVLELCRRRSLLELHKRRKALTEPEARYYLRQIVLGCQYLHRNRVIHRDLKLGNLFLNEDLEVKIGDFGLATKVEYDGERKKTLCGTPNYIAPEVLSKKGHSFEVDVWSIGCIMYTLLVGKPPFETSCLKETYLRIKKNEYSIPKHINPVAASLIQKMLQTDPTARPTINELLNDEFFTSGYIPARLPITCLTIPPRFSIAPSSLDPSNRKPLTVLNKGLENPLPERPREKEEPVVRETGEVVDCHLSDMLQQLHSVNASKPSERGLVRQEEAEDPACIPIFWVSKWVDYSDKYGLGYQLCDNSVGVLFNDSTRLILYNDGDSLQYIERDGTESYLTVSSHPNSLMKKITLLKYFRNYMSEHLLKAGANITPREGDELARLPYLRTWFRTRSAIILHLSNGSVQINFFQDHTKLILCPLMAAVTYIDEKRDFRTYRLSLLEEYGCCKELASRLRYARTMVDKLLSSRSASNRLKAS
# [17] = target: IKBKE (human) (UniProt Q14164)
# [18] = target: DYRK2 (human) (UniProt Q92630)
# [19] = target: MAPK12 (human) (UniProt P53778)
# [20] = target: PRKCA (human) (UniProt P17252)
# [21] = target: DYRK1A (human) (UniProt Q13627)
# [22] = target: CaMK1 (human) (UniProt Q14012)
# [23] = target: NEK2 (human) (UniProt P51955)
# [24] = target: SYK (human) (UniProt P43405)
# [25] = target: AURKA (human) (UniProt O14965)
# [26] = target: ERBB4 (human) (UniProt Q15303)
# [27] = system: PRKAA1 or PRKAA2 (rat); settings: accession and sequence are those of the human protein
# [28] = target: HIPK2 (human) (UniProt Q9H2X6)
# [29] = target: MKNK1 (human) (UniProt Q9BUB5)
# [30] = target: BRSK2 (human) (UniProt Q8IWQ3)
# [31] = target: MARK2 (human) (UniProt Q7KZI7)
# [32] = target: EPHB2 (human) (UniProt P29323)
# Chain of EPHB2 (human) (P29323 whole entry, looked up): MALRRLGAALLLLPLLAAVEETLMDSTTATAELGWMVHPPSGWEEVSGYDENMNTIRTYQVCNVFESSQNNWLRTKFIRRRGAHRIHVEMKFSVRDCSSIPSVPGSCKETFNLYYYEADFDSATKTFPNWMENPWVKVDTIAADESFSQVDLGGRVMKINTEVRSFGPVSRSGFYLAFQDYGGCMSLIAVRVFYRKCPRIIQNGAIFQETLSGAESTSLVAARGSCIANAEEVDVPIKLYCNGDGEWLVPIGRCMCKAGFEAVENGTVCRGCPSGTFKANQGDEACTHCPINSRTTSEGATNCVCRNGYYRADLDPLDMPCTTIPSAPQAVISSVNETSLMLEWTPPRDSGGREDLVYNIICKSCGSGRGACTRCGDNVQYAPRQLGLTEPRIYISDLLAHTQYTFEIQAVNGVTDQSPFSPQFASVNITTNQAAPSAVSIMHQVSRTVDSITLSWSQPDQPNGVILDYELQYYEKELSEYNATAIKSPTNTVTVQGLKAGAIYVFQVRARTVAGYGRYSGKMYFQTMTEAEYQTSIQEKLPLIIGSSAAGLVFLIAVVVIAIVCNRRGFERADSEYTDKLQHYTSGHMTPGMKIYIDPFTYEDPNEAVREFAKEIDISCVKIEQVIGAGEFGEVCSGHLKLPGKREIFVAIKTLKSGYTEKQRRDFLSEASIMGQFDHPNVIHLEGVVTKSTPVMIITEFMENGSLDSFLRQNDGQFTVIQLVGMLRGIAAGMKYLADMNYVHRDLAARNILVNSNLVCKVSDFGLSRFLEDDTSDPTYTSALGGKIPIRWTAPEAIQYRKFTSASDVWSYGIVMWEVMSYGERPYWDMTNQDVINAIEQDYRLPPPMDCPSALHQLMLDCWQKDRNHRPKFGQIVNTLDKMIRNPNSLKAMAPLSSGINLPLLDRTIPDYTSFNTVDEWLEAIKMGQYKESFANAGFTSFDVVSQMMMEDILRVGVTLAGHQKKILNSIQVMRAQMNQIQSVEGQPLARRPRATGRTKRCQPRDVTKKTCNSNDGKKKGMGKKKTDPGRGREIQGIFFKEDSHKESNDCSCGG
# [33] = target: PAK7 (human) (UniProt Q9P286)
# [34] = target: EPHB3 (human) (UniProt P54753)
# [35] = target: PAK4 (human) (UniProt O96013)
# Chain of CHEK2 (human) (O96017 whole entry, looked up): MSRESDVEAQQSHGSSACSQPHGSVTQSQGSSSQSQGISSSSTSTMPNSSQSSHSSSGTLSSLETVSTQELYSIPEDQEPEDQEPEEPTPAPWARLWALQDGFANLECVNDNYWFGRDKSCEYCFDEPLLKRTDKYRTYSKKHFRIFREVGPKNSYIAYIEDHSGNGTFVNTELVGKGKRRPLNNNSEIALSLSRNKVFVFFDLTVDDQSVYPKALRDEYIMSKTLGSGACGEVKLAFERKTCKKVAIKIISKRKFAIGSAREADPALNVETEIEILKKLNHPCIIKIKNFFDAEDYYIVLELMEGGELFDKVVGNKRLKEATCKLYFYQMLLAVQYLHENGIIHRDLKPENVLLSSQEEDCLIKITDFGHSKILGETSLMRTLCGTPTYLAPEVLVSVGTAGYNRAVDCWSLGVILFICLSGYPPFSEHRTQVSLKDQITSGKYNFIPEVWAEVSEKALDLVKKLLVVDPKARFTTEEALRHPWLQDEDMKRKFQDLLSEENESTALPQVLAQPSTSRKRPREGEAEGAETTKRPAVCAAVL
# Chain of MAPK3 (human) (P27361 whole entry, looked up): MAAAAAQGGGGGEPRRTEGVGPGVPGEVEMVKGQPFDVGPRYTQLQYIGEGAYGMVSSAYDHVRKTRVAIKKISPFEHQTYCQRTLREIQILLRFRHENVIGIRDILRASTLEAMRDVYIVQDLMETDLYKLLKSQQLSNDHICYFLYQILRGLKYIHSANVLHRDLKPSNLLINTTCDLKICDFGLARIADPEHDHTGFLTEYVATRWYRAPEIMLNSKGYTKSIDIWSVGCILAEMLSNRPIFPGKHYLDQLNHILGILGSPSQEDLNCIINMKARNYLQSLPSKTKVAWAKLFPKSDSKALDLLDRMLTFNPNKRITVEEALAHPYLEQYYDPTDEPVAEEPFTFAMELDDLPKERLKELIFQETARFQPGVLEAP
smiles,measurement,setting,value
NC(=O)c1ccc(-c2ccc(Oc3cncc4sc(-c5nn[nH]n5)cc34)cc2)cc1,residual activity,[1]; compound 1.0 µM,93%
same,residual activity,[1]; compound 10.0 µM,77%
same,residual activity,[2]; compound 1.0 µM,92%
same,residual activity,[2]; compound 10.0 µM,78%
same,residual activity,[3]; compound 1.0 µM,97%
same,residual activity,[3]; compound 10.0 µM,59%
same,residual activity,[4]; compound 1.0 µM,96%
same,residual activity,[4]; compound 10.0 µM,96%
same,residual activity,[5]; compound 1.0 µM,81%
same,residual activity,[5]; compound 10.0 µM,25%
same,residual activity,[6]; compound 1.0 µM,92%
same,residual activity,[6]; compound 10.0 µM,54%
same,residual activity,[7]; compound 1.0 µM,108%
same,residual activity,[7]; compound 10.0 µM,72%
same,residual activity,[8]; compound 1.0 µM,97%
same,residual activity,[8]; compound 10.0 µM,78%
same,residual activity,[9]; compound 1.0 µM,100%
same,residual activity,[9]; compound 10.0 µM,68%
same,residual activity,[10]; compound 1.0 µM,105%
same,residual activity,[10]; compound 10.0 µM,72%
same,residual activity,[11]; compound 1.0 µM,96%
same,residual activity,[11]; compound 10.0 µM,78%
same,residual activity,[12]; compound 1.0 µM,82%
same,residual activity,[12]; compound 10.0 µM,87%
same,residual activity,[13]; compound 1.0 µM,104%
same,residual activity,[13]; compound 10.0 µM,99%
same,residual activity,[14]; compound 1.0 µM,93%
same,residual activity,[14]; compound 10.0 µM,61%
same,residual activity,[15]; compound 1.0 µM,88%
same,residual activity,[15]; compound 10.0 µM,33%
same,residual activity,[16]; compound 1.0 µM,90%
same,residual activity,[16]; compound 10.0 µM,24%
same,residual activity,[17]; compound 1.0 µM,89%
same,residual activity,[17]; compound 10.0 µM,69%
same,residual activity,[18]; compound 1.0 µM,7%
same,residual activity,[18]; compound 10.0 µM,2%
same,residual activity,[19]; compound 1.0 µM,86%
same,residual activity,[19]; compound 10.0 µM,65%
same,residual activity,[20]; compound 1.0 µM,76%
same,residual activity,[20]; compound 10.0 µM,30%
same,residual activity,[21]; compound 1.0 µM,21%
same,residual activity,[21]; compound 10.0 µM,3%
same,residual activity,[22]; compound 1.0 µM,105%
same,residual activity,[22]; compound 10.0 µM,85%
same,residual activity,[23]; compound 1.0 µM,94%
same,residual activity,[23]; compound 10.0 µM,80%
same,residual activity,[24]; compound 1.0 µM,107%
same,residual activity,[24]; compound 10.0 µM,95%
same,residual activity,[25]; compound 1.0 µM,103%
same,residual activity,[25]; compound 10.0 µM,78%
same,residual activity,[26]; compound 1.0 µM,88%
same,residual activity,[26]; compound 10.0 µM,73%
same,residual activity,[27]; compound 1.0 µM,77%
same,residual activity,[27]; compound 10.0 µM,49%
same,residual activity,[28]; compound 1.0 µM,64%
same,residual activity,[28]; compound 10.0 µM,10%
same,residual activity,[29]; compound 1.0 µM,100%
same,residual activity,[29]; compound 10.0 µM,84%
same,residual activity,[30]; compound 1.0 µM,92%
same,residual activity,[30]; compound 10.0 µM,95%
same,residual activity,[31]; compound 1.0 µM,80%
same,residual activity,[31]; compound 10.0 µM,83%
same,residual activity,[32]; compound 1.0 µM,106%
same,residual activity,[32]; compound 10.0 µM,99%
same,residual activity,[33]; compound 1.0 µM,81%
same,residual activity,[33]; compound 10.0 µM,66%
same,residual activity,[34]; compound 1.0 µM,93%
same,residual activity,[34]; compound 10.0 µM,96%
same,residual activity,[35]; compound 1.0 µM,89%
same,residual activity,[35]; compound 10.0 µM,54%
Cc1nc(-c2ccc(OCC(C)C)c(C#N)c2)sc1C(=O)O,residual activity,[1]; compound 1.0 µM,95%
same,residual activity,[1]; compound 10.0 µM,103%
same,residual activity,[2]; compound 1.0 µM,95%
same,residual activity,[2]; compound 10.0 µM,73%
same,residual activity,[3]; compound 1.0 µM,101%
same,residual activity,[3]; compound 10.0 µM,60%
same,residual activity,[4]; compound 1.0 µM,105%
same,residual activity,[5]; compound 1.0 µM,80%
same,residual activity,[5]; compound 10.0 µM,47%
same,residual activity,[6]; compound 1.0 µM,103%
same,residual activity,[6]; compound 10.0 µM,97%
same,residual activity,[7]; compound 1.0 µM,99%
same,residual activity,[7]; compound 10.0 µM,91%
same,residual activity,[8]; compound 10.0 µM,95%
same,residual activity,[9]; compound 1.0 µM,99%
same,residual activity,[9]; compound 10.0 µM,98%
same,residual activity,[10]; compound 1.0 µM,99%
same,residual activity,[10]; compound 10.0 µM,92%
same,residual activity,[11]; compound 1.0 µM,97%
same,residual activity,[11]; compound 10.0 µM,95%
same,residual activity,[12]; compound 1.0 µM,102%
same,residual activity,[12]; compound 10.0 µM,95%
same,residual activity,[13]; compound 1.0 µM,85%
same,residual activity,[13]; compound 10.0 µM,81%
same,residual activity,[14]; compound 1.0 µM,94%
same,residual activity,[14]; compound 10.0 µM,90%
same,residual activity,[15]; compound 1.0 µM,92%
same,residual activity,[15]; compound 10.0 µM,84%
same,residual activity,[16]; compound 1.0 µM,94%
same,residual activity,[16]; compound 10.0 µM,91%
same,residual activity,[17]; compound 1.0 µM,138%
same,residual activity,[17]; compound 10.0 µM,100%
same,residual activity,[18]; compound 1.0 µM,95%
same,residual activity,[18]; compound 10.0 µM,83%
same,residual activity,[19]; compound 1.0 µM,84%
same,residual activity,[19]; compound 10.0 µM,96%
same,residual activity,[20]; compound 1.0 µM,94%
same,residual activity,[20]; compound 10.0 µM,92%
same,residual activity,[21]; compound 1.0 µM,102%
same,residual activity,[21]; compound 10.0 µM,85%
same,residual activity,[22]; compound 1.0 µM,98%
same,residual activity,[22]; compound 10.0 µM,93%
same,residual activity,[23]; compound 1.0 µM,89%
same,residual activity,[23]; compound 10.0 µM,98%
same,residual activity,[24]; compound 1.0 µM,158%
same,residual activity,[24]; compound 10.0 µM,117%
same,residual activity,[25]; compound 10.0 µM,94%
same,residual activity,[26]; compound 1.0 µM,102%
same,residual activity,[26]; compound 10.0 µM,103%
same,residual activity,[27]; compound 1.0 µM,92%
same,residual activity,[27]; compound 10.0 µM,83%
same,residual activity,[28]; compound 1.0 µM,100%
same,residual activity,[28]; compound 10.0 µM,98%
same,residual activity,[29]; compound 1.0 µM,106%
same,residual activity,[29]; compound 10.0 µM,95%
same,residual activity,[30]; compound 1.0 µM,100%
same,residual activity,[30]; compound 10.0 µM,86%
same,residual activity,[31]; compound 1.0 µM,60%
same,residual activity,[31]; compound 10.0 µM,59%
same,residual activity,[32]; compound 1.0 µM,122%
same,residual activity,[32]; compound 10.0 µM,102%
same,residual activity,[33]; compound 1.0 µM,101%
same,residual activity,[33]; compound 10.0 µM,88%
same,residual activity,[34]; compound 10.0 µM,83%
same,residual activity,[35]; compound 1.0 µM,85%
same,residual activity,[35]; compound 10.0 µM,67%
